{"source": "patent US6656690B2", "about": "“Mass spectrometric methods for biomolecular screening” (priority 1998, dated 2003)", "tested_on": "18S A site model", "assay": "ESI-FTICR mass spectrometric (MASS) binding assay, mass-tagged 18S A-site 27-mer RNA model", "set-up": "species or system eukaryotic", "settings": "aminoglycosides 500 nM each, mixture with untagged 16S and tagged 18S", "method": "The ESI-FTICR mass spectrum depicted in FIG. 26 was acquired from a […] mixture of untagged 16S and tagged 18S in the presence of an equimolar mixture of five aminoglycosides. It is to be understood that other biomolecules may be used in place of the aminoglycosides. The aminoglycosides have been selected from two classes of 2-deoxystreptamines: 4,5-disubstituted (paromomycin, and lividomycin), and 4,6-disubstituted (tobramycin, sisomicin, and bekanamycin), present at 500 nM each. Complexes corresponding to 1:1 binding of individual aminoglycosides were observed between 16S and all members of the aminoglycoside mixture, with the apparent affinities estimated from the abundances of the respective complexes differing substantially. Signal intensities from the complexes with paromomycin (m/z 1925.572) and lividomycin (m/z 1954.790) are consistent with MS-measured dissociation constants of 110 nM and 28 nM, respectively. The intensities of 16S complexes with tobramycin (m/z 1895.960), bekanamycin (m/z 1899.171), and sisomicin (m/z 1891.972) were reduced, consistent with solution dissociation constants of […]. Wang, et al., Biochemistry, 1997, 36, 768-779. […] The average mass measurement error obtained for the complexes in FIG. 26 is 2.1 ppm when m/z differences are measured between the most abundant (4 ^13C) isotope peak of 16S and each complex. […]"}
{"smiles": "NC[C@@H]1O[C@H](O[C@H]2[C@@H](O)[C@H](O[C@@H]3[C@@H](O)[C@H](N)C[C@H](N)[C@H]3O[C@H]3O[C@H](CO)[C@@H](O)[C@H](O)[C@H]3N)O[C@@H]2CO)[C@H](N)[C@@H](O)[C@@H]1O", "note": "[paromomycin]", "values": [{"measurement": "complexes observed with 18S (in words)", "value": "complete absence of complexes"}]}
